According to PubChem BioAssay (NCI):
“And” between values parts separate entries of the source, which are not always exact repeats. Equal values may be shown once.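 1) Cells in 96-well plates. 2) Compound, 48 h, 5 concentrations. 3) Linear interpolation between surrounding doses. 4) Unreached endpoint = highest concentration. GI50 is the concentration that inhibits growth by half. At the TGI there is no net growth.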 Where a SMILES comes first, the peptide text is derived from it. The star is where a group is joined. Boc = CC(C)(C)OC(=O)*

What was measured:
Assay in all cases: DTP human tumour cell line panel, 48 h
SR leukemia = system: SR leukemia
OVCAR-3 ovarian = system: OVCAR-3 ovarian
DU-145 prostate = system: DU-145 prostate
BT-549 breast = system: BT-549 breast
IGROV1 ovarian = system: IGROV1 ovarian
OVCAR-4 ovarian = system: OVCAR-4 ovarian
U251 CNS = system: U251 CNS
T-47D breast = system: T-47D breast
COLO 205 colon = system: COLO 205 colon
SF-268 CNS = system: SF-268 CNS

Structure (SMILES)	GI50 (SR leukemia)	TGI (SR leukemia)	GI50 (OVCAR-3 ovarian)	TGI (OVCAR-3 ovarian)	GI50 (DU-145 prostate)	TGI (DU-145 prostate)	GI50 (BT-549 breast)	TGI (BT-549 breast)	GI50 (IGROV1 ovarian)	TGI (IGROV1 ovarian)	GI50 (OVCAR-4 ovarian)	TGI (OVCAR-4 ovarian)	GI50 (U251 CNS)	TGI (U251 CNS)	GI50 (T-47D breast)	TGI (T-47D breast)	GI50 (COLO 205 colon)	TGI (COLO 205 colon)	GI50 (SF-268 CNS)	TGI (SF-268 CNS)
CC1(C)N=C(N)N=C(N)N1c1ccc(CCCCc2ccc(Cl)c(S(=O)(=O)F)c2)c(Cl)c1	0.186 µM	3.36 µM	2.22 µM	15.1 µM	0.769 µM	16.5 µM	1.55 µM	12.5 µM	0.117 µM	20.7 µM	4.51 µM	49.7 µM	0.437 µM	19.6 µM	3.11 µM	15.1 µM	1.71 µM	7.98 µM	0.509 µM	15.9 µM
Oc1ccc(Nc2c3ccccc3nc3occ(Cl)c23)cc1	2.3 µM	8.62 µM	3.12 µM	8.76 µM	22.4 µM	> 100 µM	19.4 µM	> 100 µM	1.19 µM	5.32 µM	7.44 µM	> 100 µM	5.63 µM	> 100 µM	6.49 µM	> 100 µM	4.12 µM	> 100 µM	4.26 µM	> 100 µM
C=C1C(=O)OC2CC(C)C(C(O)CC(C)O)=CCC12 (stereo not drawn)	–	29.5 µM	–	25.2 µM	–	30.4 µM	–	30.2 µM	–	43.4 µM	–	42.2 µM	–	39.4 µM	–	23.6 µM	–	24.6 µM	–	36.4 µM
COc1ccc(Cn2c(N)c(S(=O)(=O)c3ccc(Cl)cc3)c3nc(C#N)c(C#N)nc32)cc1	29.9 µM	> 50 µM	2.9 µM	19.4 µM	20.2 µM	> 50 µM	34.3 µM	> 50 µM	21.6 µM	> 50 µM	25.2 µM	> 50 µM	10.1 µM	30.3 µM	> 50 µM	> 50 µM	> 50 µM	> 50 µM	9.25 µM	42.3 µM
COC(=O)C1=CN(CC2=CC(=O)C(C)=CC2=O)C=C(C(=O)OC)C1c1cccc(OC)c1	4.74 µM	35 µM	3.51 µM	12.3 µM	16.4 µM	33.3 µM	8.61 µM	36.6 µM	12.8 µM	> 58.1 µM	25.7 µM	> 100 µM	8.47 µM	30.5 µM	8.26 µM	> 100 µM	18.4 µM	> 66.6 µM	12.1 µM	30.8 µM
CN(C)c1ncnc2c1ncn2CCn1cnc2c(N(C)C)ncnc21	–	> 100 µM	–	> 100 µM	–	> 100 µM	–	> 100 µM	–	> 100 µM	–	> 100 µM	–	> 100 µM	–	> 100 µM	–	> 100 µM	–	> 100 µM
O=C(/C=C/C=C/c1ccccc1)c1ccccc1	–	34.5 µM	–	34.3 µM	–	40.1 µM	–	43.5 µM	–	31.2 µM	–	39.7 µM	–	27 µM	–	48.2 µM	–	31.5 µM	–	38.2 µM
O=C(Nc1ccc(Cl)c(C(F)(F)F)c1)c1ccc(NC2=C(Cl)C(=O)N(Cc3ccccc3)C2=O)cc1	1.65 µM	4.33 µM	18.6 µM	37.9 µM	2.45 µM	6.71 µM	2.28 µM	5.78 µM	1.59 µM	3.92 µM	11.4 µM	69.9 µM	2.15 µM	5.23 µM	6.11 µM	> 100 µM	19.2 µM	56.8 µM	2.76 µM	9.02 µM
COc1ccc(C2=C(c3ccc(OC)cc3)C(=O)N3CCCC3C2)cc1 (stereo not drawn)	> 37.1 µM	> 100 µM	11.7 µM	> 100 µM	13.5 µM	> 100 µM	17.1 µM	> 89.8 µM	18.1 µM	> 100 µM	15.5 µM	> 100 µM	5.99 µM	> 100 µM	28 µM	> 100 µM	7.43 µM	> 100 µM	16.4 µM	> 100 µM
O=C1c2cccc3cccc(c23)C(=O)N1CCCCCN1CCN(CCCCCOc2ccc(-c3nc4ccc(N5CCOCC5)cc4[nH]3)cc2)CC1	1.18 µM	3.2 µM	6.07 µM	11.2 µM	14.7 µM	27.8 µM	4.88 µM	23.2 µM	1.76 µM	8.08 µM	7.04 µM	28.3 µM	5.47 µM	10.2 µM	2.01 µM	7.71 µM	13.1 µM	28.7 µM	22.4 µM	43.2 µM
CN1CC[C@@H](c2c(O)cc(O)c3c(=O)cc(-c4ccc(C(F)(F)F)cc4Cl)oc23)[C@@H]1CO	3.21 µM	17 µM	17 µM	46.9 µM	16.5 µM	37.7 µM	12.2 µM	25.9 µM	11.8 µM	38.6 µM	23.6 µM	83.2 µM	16.7 µM	33.9 µM	14.5 µM	50.4 µM	15.1 µM	32.9 µM	15.2 µM	39.6 µM
Cn1c(Nc2ccc(C(F)(F)F)cc2)nc2cc(Oc3ccnc(-c4ncc(C(F)(F)F)[nH]4)c3)ccc21	0.0457 µM	13.2 µM	1.54 µM	7.54 µM	2.05 µM	17.3 µM	0.155 µM	12.2 µM	0.0668 µM	15.4 µM	1.21 µM	14.4 µM	0.154 µM	12.9 µM	2.3 µM	17.4 µM	0.367 µM	10.6 µM	0.966 µM	14.5 µM
COc1ccccc1Nc1ncc(-c2ccccc2)o1	> 25 µM	> 25 µM	> 25 µM	> 25 µM	> 25 µM	> 25 µM	> 25 µM	> 25 µM	> 25 µM	> 25 µM	> 25 µM	> 25 µM	> 25 µM	> 25 µM	> 25 µM	> 25 µM	> 25 µM	> 25 µM	> 25 µM	> 25 µM
COC(=O)C(C)NC(=O)C(CCSC)NC(=O)C(Cc1ccccc1)NC(=O)OC(C)(C)C (stereo not drawn) (Boc-Phe-Met-Ala-OMe; configuration not given here)	21.4 µg/mL	44.8 µg/mL and > 100 µM	26.6 µg/mL	52.7 µg/mL and > 100 µM	43.7 µg/mL	> 100 µM	18.3 µg/mL	> 100 µM	53.5 µg/mL	> 100 µM	–	> 100 µM	22.6 µg/mL	67 µg/mL and > 100 µM	–	> 100 µM	24.2 µg/mL	47.4 µg/mL and > 100 µM	42.3 µg/mL	> 100 µM
O=C(Nc1cc(C(F)(F)F)ccc1Cl)c1cccc(NC2=C(Cl)C(=O)N(Cc3ccccc3)C2=O)c1	1.26 µM	3.16 µM	34.3 µM	> 100 µM	54.4 µM	> 100 µM	15.6 µM	> 100 µM	2.81 µM	> 100 µM	> 100 µM	> 100 µM	11.1 µM	> 100 µM	81.1 µM	> 100 µM	41.5 µM	> 100 µM	29.2 µM	> 100 µM
CSc1nc(NC2OC(COC(C)=O)C(OC(C)=O)C(OC(C)=O)C2OC(C)=O)c(N=CC=Nc2c(NC3OC(COC(C)=O)C(OC(C)=O)C(OC(C)=O)C3OC(C)=O)nc(SC)n(C)c2=O)c(=O)n1C (stereo not drawn)	> 50 µM	> 100 µM	> 50 µM	> 50 µM	> 50 µM	> 100 µM	37.5 µM	50 µM and > 100 µM	> 50 µM	> 100 µM	> 50 µM	> 100 µM	20.6 µM	50 µM and > 100 µM	43.2 µM	50 µM and > 100 µM	> 50 µM	> 100 µM	> 50 µM	> 100 µM
Cc1cc2cc3c(=O)[nH]c(=O)[nH]c3nc2cc1C	–	> 100 µM	–	> 100 µM	–	> 100 µM	–	> 100 µM	–	> 100 µM	–	> 100 µM	–	> 100 µM	–	> 100 µM	–	> 100 µM	–	> 100 µM
COc1ccc2c(c1)c[n+](C)c1c3cc(OC)c(OC)cc3ccc21	–	13.2 µM	–	15 µM	3.1 µM and 8.21 µM	11.4 µM and 21.3 µM	2.4 µM and 10.2 µM	9.63 µM and 26.2 µM	1.39 µM and 4.4 µM	2.85 µM and 15.8 µM	5.48 µM	20.4 µM	–	2.3 µM and 5.45 µM	1.95 µM and 5.02 µM	4.93 µM and 26.4 µM	–	3.5 µM and 2.99 µM	–	9.9 µM
COc1ccc(C(O)(CCC(C)C)C(CN2CCOCC2)c2ccc(Cl)cc2)cc1 (stereo not drawn)	10.4 µM	28.9 µM	12.9 µM	26.2 µM	15.4 µM	29.5 µM	14.9 µM	30 µM	14.2 µM	54.2 µM	12.1 µM	27.4 µM	12.3 µM	26.3 µM	11.4 µM	26.9 µM	12.7 µM	30.9 µM	14 µM	29.3 µM
COc1ccc(-c2cc(/C=C/C(=O)c3ccc(OC)c(OC)c3)[nH]n2)cc1	0.677 µM	3.74 µM	1.19 µM	2.47 µM	1.4 µM	2.81 µM	1.68 µM	3.53 µM	1.57 µM	3.65 µM	0.509 µM	3.87 µM	1.11 µM	2.34 µM	1.6 µM	5.15 µM	1.76 µM	3.3 µM	1.94 µM	4.83 µM
BrCc1cccc(C[P+](c2ccccc2)(c2ccccc2)c2ccccc2)c1	25.8 µM	> 100 µM	10.8 µM	> 100 µM	52.9 µM	> 100 µM	34.5 µM	> 100 µM	21.6 µM	> 100 µM	9.02 µM	> 100 µM	6.86 µM	> 100 µM	3.99 µM	> 100 µM	4.57 µM	18.9 µM	40.4 µM	> 100 µM
CCN(Cc1ccc(F)cc1)c1ccc(CO)c(Br)c1	17 µM	46.4 µM	0.238 µM	0.868 µM	16.5 µM	> 53.1 µM	12.2 µM	29 µM	0.0402 µM	0.202 µM	0.152 µM	2.68 µM	0.171 µM	13 µM	0.0546 µM	0.296 µM	0.966 µM	4.98 µM	22.6 µM	> 56.3 µM
O=c1[nH]c2ccc(O)cc2o1	–	> 100 µM	–	> 100 µM	–	> 100 µM	–	> 100 µM	–	> 100 µM	–	> 100 µM	–	> 100 µM	–	> 100 µM	–	> 100 µM	–	> 100 µM
CC(C)=CCc1cc2c(cc1O)OC[C@H]1c3cc4c(cc3O[C@@H]21)OCO4	–	> 100 µM	–	> 100 µM	–	> 100 µM	–	95.3 µM	–	> 100 µM	–	> 100 µM	–	> 100 µM	–	> 100 µM	–	> 100 µM	–	> 100 µM
O=S(=O)(Nc1ccc(Cl)cc1Cl)c1ccc(-c2cnc(C3CC3)o2)cc1	0.42 µM	> 58.9 µM	0.439 µM	15 µM	2.6 µM	> 100 µM	0.663 µM	36.3 µM	0.647 µM	> 73.3 µM	3.72 µM	> 100 µM	0.613 µM	33.8 µM	0.475 µM	> 85.8 µM	1.13 µM	11.1 µM	2.85 µM	72.9 µM
O=C(CNS(=O)(=O)Cc1ccccc1)NNc1ccccc1	–	> 100 µM	–	> 100 µM	–	> 100 µM	–	> 100 µM	–	> 100 µM	–	> 100 µM	–	> 100 µM	–	> 100 µM	–	12.4 µM	–	> 100 µM
Cc1nc2cc(Nc3nc(Nc4ccc(F)cc4)nc(-c4cccs4)n3)ccc2n1Cc1ccccc1	2.56 µM	7.44 µM	4.87 µM	38.1 µM	7.7 µM	> 100 µM	15.8 µM	40.7 µM	3.62 µM	12.9 µM	3.24 µM	34.8 µM	3.13 µM	13.7 µM	2.6 µM	9.33 µM	3.7 µM	12.9 µM	9.74 µM	> 100 µM
